test system: HCV 1b_Huh-Luc/Neo-ET cell line persistently expressing a bicistronic genotype 1b replicon in Huh 7 cells; assay: HCV replicon assay, luciferase enzyme activity readout; format: cell-based; conditions: Hepatitis C virus, 72 h incubation, average EC50 range, read-out: Inhibition of HCV genotype 1b
Experimental: Biological activity of the compounds of the invention was determined using an HCV replicon assay. The HCV 1b_Huh-Luc/Neo-ET cell line persistently expressing a bicistronic genotype 1b replicon in Huh 7 cells was obtained from ReBLikon GMBH. This cell line was used to test compound inhibition using luciferase enzyme activity readout as a measurement of compound inhibition of replicon levels.
On Day 1 (the day after plating cells), each compound is added in triplicate to the cells. Plates are incubated for 72 h prior to determining luciferase levels. Enzyme activity was measured using a Bright-Glo Kit (cat. number E2620) manufactured by Promega Corporation. The following equation was used to generate a percent control value for each compound. % Control=(Compound Luciferase Level/Control Luciferase Level)*100
The EC50 value was determined using GraphPad Prism and the following equation: Y=Bottom asymptote+(Top asymptote−Bottom asymptote)/(1+10^((Log EC50−X)*HillSlope))
EC50 values of compounds are determined several times in the replicon assay to generate average EC50 values. […]

| SMILES | EC50 [nM] |
| --- | --- |
| COC(=O)N[C@H](C(=O)N1CCC[C@H]1c1ncc(-c2ccc3c(c2)Cc2cc(F)c(-c4cnc([C@@H]5CCCN5C(=O)[C@@H](NC(=O)OC)[C@@H](C)OC)[nH]4)cc2O3)[nH]1)[C@@H](C)OC [Compound 40] | < 1 |
| CC[C@H](C)[C@H](NC(=O)OC)C(=O)N1CCC[C@H]1c1ncc(-c2ccc3c(c2)Cc2cc(F)c(-c4cnc([C@@H]5CCCN5C(=O)[C@@H](NC(=O)OC)[C@@H](C)OC)[nH]4)cc2O3)[nH]1 [Compound 41] | < 1 |
| COC(=O)N[C@H](C(=O)N1CCC[C@H]1c1ncc(-c2ccc3c(c2)Cc2cc(F)c(-c4cnc([C@@H]5CCCN5C(=O)[C@@H](NC(=O)OC)[C@@H](C)OC)[nH]4)cc2O3)[nH]1)C1CCOCC1 [Compound 42] | < 1 |
| COC[C@H](NC(=O)OC)C(=O)N1CCC[C@H]1c1ncc(-c2ccc3c(c2)Cc2cc(F)c(-c4cnc([C@@H]5CCCN5C(=O)[C@@H](NC(=O)OC)[C@@H](C)OC)[nH]4)cc2O3)[nH]1 [Compound 43] | < 1 |
| COC(=O)N[C@H](C(=O)N1CCC[C@H]1c1ncc(-c2cc3c(cc2F)Cc2cc(-c4cnc([C@@H]5CCCN5C(=O)[C@@H](NC(=O)OC)C5CCOCC5)[nH]4)ccc2O3)[nH]1)C(C)C [Compound 44] | < 1 |
| COC[C@H](NC(=O)OC)C(=O)N1CCC[C@H]1c1ncc(-c2ccc3c(c2)Cc2cc(F)c(-c4cnc([C@@H]5CCCN5C(=O)[C@@H](NC(=O)OC)C(C)C)[nH]4)cc2O3)[nH]1 [Compound 45] | < 1 |
| CC[C@H](C)[C@H](NC(=O)OC)C(=O)N1CCC[C@H]1c1ncc(-c2ccc3c(c2)Oc2ccc(-c4cnc([C@@H]5CCCN5C(=O)[C@@H](NC(=O)OC)[C@@H](C)CC)[nH]4)cc2O3)[nH]1 [Compound 46] | < 1 |
| COC(=O)N[C@H](C(=O)N1CCCC[C@H]1c1ncc(-c2ccc3c(c2)Oc2ccc(-c4cnc([C@@H]5CCCCN5C(=O)[C@@H](NC(=O)OC)C(C)C)[nH]4)cc2O3)[nH]1)C(C)C [Compound 47] | < 1 |
| COC(=O)N[C@@H](C(=O)N1CCCC[C@H]1c1ncc(-c2ccc3c(c2)Oc2ccc(-c4cnc([C@@H]5CCCCN5C(=O)[C@H](NC(=O)OC)c5ccccc5)[nH]4)cc2O3)[nH]1)c1ccccc1 [Compound 48] | < 1 |
| COC(=O)N[C@H](C(=O)N1CCC[C@H]1c1ncc(-c2ccc3oc4cc(-c5cnc([C@@H]6CCCN6C(=O)[C@@H](NC(=O)OC)C(C)C)[nH]5)c(Cl)cc4c(=O)c3c2)[nH]1)C(C)C [Compound 49] | < 1 |
| COC(=O)N[C@H](C(=O)N1CCC[C@H]1c1ncc(-c2ccc3oc4cc(-c5cnc([C@@H]6CCCN6C(=O)[C@@H](NC(=O)OC)[C@@H](C)OC)[nH]5)c(Cl)cc4c(=O)c3c2)[nH]1)[C@@H](C)OC [Compound 50] | < 1 |
| CC[C@H](C)[C@H](NC(=O)OC)C(=O)N1CCC[C@H]1c1ncc(-c2ccc3oc4cc(-c5cnc([C@@H]6CCCN6C(=O)[C@@H](NC(=O)OC)[C@@H](C)CC)[nH]5)c(Cl)cc4c(=O)c3c2)[nH]1 [Compound 51] | < 1 |
| COC(=O)N[C@H](C(=O)N1CCC[C@H]1c1ncc(-c2ccc3oc4cc(-c5cnc([C@@H]6CCCN6C(=O)[C@@H](NC(=O)OC)C6CCOCC6)[nH]5)c(Cl)cc4c(=O)c3c2)[nH]1)C1CCOCC1 [Compound 52] | < 1 |
| CC[C@H](C)[C@H](NC(=O)OC)C(=O)N1CCC[C@H]1c1ncc(-c2ccc3c(c2)Cc2cc(F)c(-c4cnc([C@@H]5CCCN5C(=O)[C@@H](NC(=O)OC)[C@@H](C)CC)[nH]4)cc2O3)[nH]1 [Compound 53] | < 1 |
| CC[C@H](C)[C@H](NC(=O)OC)C(=O)N1CCC[C@H]1c1ncc(-c2cc3c(cc2F)Cc2cc(-c4cnc([C@@H]5CCCN5C(=O)[C@@H](NC(=O)OC)[C@@H](C)OC)[nH]4)ccc2O3)[nH]1 [Compound 54] | < 1 |
| C=CC[C@H](NC(=O)OC)C(=O)N1CCC[C@H]1c1ncc(-c2ccc3c(c2)Oc2ccc(-c4cnc([C@@H]5CCCN5C(=O)[C@H](CC=C)NC(=O)OC)[nH]4)cc2O3)[nH]1 [Compound 55] | < 1 |
| C#CC[C@H](NC(=O)OC)C(=O)N1CCC[C@H]1c1ncc(-c2ccc3c(c2)Oc2ccc(-c4cnc([C@@H]5CCCN5C(=O)[C@H](CC#C)NC(=O)OC)[nH]4)cc2O3)[nH]1 [Compound 56] | < 1 |
| [2H]C([2H])([2H])C([2H])(C([2H])([2H])[2H])[C@]([2H])(NC(=O)OC)C(=O)N1CCC[C@H]1c1ncc(-c2ccc3c(c2)Oc2ccc(-c4cnc([C@@H]5CCCN5C(=O)[C@@]([2H])(NC(=O)OC)C([2H])(C([2H])([2H])[2H])C([2H])([2H])[2H])[nH]4)cc2O3)[nH]1 [Compound 57] | < 1 |
| COC(=O)N[C@@H](C(=O)N1CCC[C@H]1c1ncc(-c2ccc3oc4cc(-c5cnc([C@@H]6CCCN6C(=O)[C@H](NC(=O)OC)c6ccccc6)[nH]5)c(Cl)cc4c(=O)c3c2)[nH]1)c1ccccc1 [Compound 58] | < 1 |
| CC[C@H](C)[C@H](NC(=O)OC)C(=O)N1CCC[C@H]1c1ncc(-c2cc3c(cc2F)Cc2cc(-c4cnc([C@@H]5CCCN5C(=O)[C@@H](NC(=O)OC)C5CCOCC5)[nH]4)ccc2O3)[nH]1 [Compound 59] | < 1 |
| CC[C@H](C)[C@H](NC(=O)OC)C(=O)N1CCC[C@H]1c1ncc(-c2cc3c(cc2F)Cc2cc(-c4cnc([C@@H]5CCCN5C(=O)[C@H](COC)NC(=O)OC)[nH]4)ccc2O3)[nH]1 [Compound 60] | < 1 |
| COC(=O)N[C@H](C(=O)N1CCC[C@H]1c1ncc(-c2ccc3c(c2)Cc2cc(Cl)c(-c4cnc([C@@H]5CCCN5C(=O)[C@@H](NC(=O)OC)C(C)C)[nH]4)cc2O3)[nH]1)C(C)C [Compound 61] | < 1 |
| COC(=O)N[C@H](C(=O)N1CCC[C@H]1c1ncc(-c2ccc3c(c2)Cc2cc(Cl)c(-c4cnc([C@@H]5CCCN5C(=O)[C@@H](NC(=O)OC)[C@@H](C)OC)[nH]4)cc2O3)[nH]1)[C@@H](C)OC [Compound 62] | < 1 |
| CC[C@H](C)[C@H](NC(=O)OC)C(=O)N1CCC[C@H]1c1ncc(-c2ccc3c(c2)Cc2cc(Cl)c(-c4cnc([C@@H]5CCCN5C(=O)[C@@H](NC(=O)OC)[C@@H](C)CC)[nH]4)cc2O3)[nH]1 [Compound 63] | < 1 |
| COC(=O)N[C@H](C(=O)N1CCOC[C@H]1c1ncc(-c2ccc3c(c2)Oc2ccc(-c4cnc([C@@H]5COCCN5C(=O)[C@@H](NC(=O)OC)C(C)C)[nH]4)cc2O3)[nH]1)C(C)C [Compound 64] | < 1 |
| COC(=O)N[C@@H](C(=O)N1CCOC[C@H]1c1ncc(-c2ccc3c(c2)Oc2ccc(-c4cnc([C@@H]5COCCN5C(=O)[C@H](NC(=O)OC)c5ccccc5)[nH]4)cc2O3)[nH]1)c1ccccc1 [Compound 65] | < 1 |
| COC(=O)N[C@H](C(=O)N1CSC[C@H]1c1ncc(-c2ccc3c(c2)Oc2ccc(-c4cnc([C@@H]5CSCN5C(=O)[C@@H](NC(=O)OC)C5CCCC5)[nH]4)cc2O3)[nH]1)C1CCCC1 [Compound 66] | < 1 |
| CC[C@H](C)[C@H](NC(=O)OC)C(=O)N1CSC[C@H]1c1ncc(-c2ccc3c(c2)Oc2ccc(-c4cnc([C@@H]5CSCN5C(=O)[C@@H](NC(=O)OC)[C@@H](C)CC)[nH]4)cc2O3)[nH]1 [Compound 67] | < 1 |
